Earlier results as cited in patent US4318847A, “Physiologically active tetrapeptides” (Zaidan Hojin Biseibutsu Kagaku Kenkyu Kai, priority 1979, dated 1982).
*1 amine or outer side, *2 acyl side, *3 side chain or, on linkers, in order; H or OH if unused. Where a SMILES comes first, the peptide text is derived from it. [ ]: non-standard residue; d: D form. The star is where a group is joined. Sta = CC(C)C[C@H](N)[C@@H](O)CC(=O)O; Isovaleryl = CC(C)CC(=O)*; CO = O=C([*:1])[*:2]

How the values were obtained:
leucine aminopeptidase = leucine aminopeptidase (Homo sapiens, UniProt P28838); conditions: prior art, U.S. Pat. No. 4,029,547; cited from earlier work
aminopeptidase A = aminopeptidase A (Homo sapiens, UniProt Q07075); conditions: prior art; cited from earlier work
aminopeptidase B = aminopeptidase B (Homo sapiens, UniProt Q9H4A4); conditions: prior art, U.S. Pat. No. 4,029,547; cited from earlier work
papain = molecular target: T1, papain (Carica papaya, UniProt P00784); conditions: prior art; cited from earlier work
T1 sequence (P00784 134-345): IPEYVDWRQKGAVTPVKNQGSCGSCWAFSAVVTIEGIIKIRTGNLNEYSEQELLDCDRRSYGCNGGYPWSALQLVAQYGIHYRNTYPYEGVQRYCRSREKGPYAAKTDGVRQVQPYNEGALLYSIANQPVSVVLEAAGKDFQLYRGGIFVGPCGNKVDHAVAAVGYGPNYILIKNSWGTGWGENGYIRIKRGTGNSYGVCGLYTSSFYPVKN

trypsin = molecular target: T2, trypsin (Bos taurus, UniProt P00760); conditions: prior art; cited from earlier work
T2 construct: gene PRSS1
T2 sequence (P00760 24-246): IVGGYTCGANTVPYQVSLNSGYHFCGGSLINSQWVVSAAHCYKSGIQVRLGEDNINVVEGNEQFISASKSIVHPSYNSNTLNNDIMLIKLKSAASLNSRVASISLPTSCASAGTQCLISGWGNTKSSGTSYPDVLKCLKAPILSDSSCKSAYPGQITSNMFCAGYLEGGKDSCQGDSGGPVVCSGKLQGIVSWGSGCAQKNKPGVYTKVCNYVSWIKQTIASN

pepsin = pepsin (Homo sapiens, UniProt P0DJD8); conditions: prior art; cited from earlier work
Chain of pepsin (P0DJD8 63-388): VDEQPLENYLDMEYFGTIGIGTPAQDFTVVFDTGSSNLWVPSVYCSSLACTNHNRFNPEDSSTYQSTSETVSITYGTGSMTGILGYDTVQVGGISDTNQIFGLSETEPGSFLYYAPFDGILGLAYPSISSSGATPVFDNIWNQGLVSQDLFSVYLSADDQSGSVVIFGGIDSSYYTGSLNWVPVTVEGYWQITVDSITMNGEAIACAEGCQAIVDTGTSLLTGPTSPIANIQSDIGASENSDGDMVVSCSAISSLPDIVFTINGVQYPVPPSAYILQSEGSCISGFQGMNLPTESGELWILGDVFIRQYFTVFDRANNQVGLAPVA

Chain of aminopeptidase A (Q07075 whole entry, species assumed): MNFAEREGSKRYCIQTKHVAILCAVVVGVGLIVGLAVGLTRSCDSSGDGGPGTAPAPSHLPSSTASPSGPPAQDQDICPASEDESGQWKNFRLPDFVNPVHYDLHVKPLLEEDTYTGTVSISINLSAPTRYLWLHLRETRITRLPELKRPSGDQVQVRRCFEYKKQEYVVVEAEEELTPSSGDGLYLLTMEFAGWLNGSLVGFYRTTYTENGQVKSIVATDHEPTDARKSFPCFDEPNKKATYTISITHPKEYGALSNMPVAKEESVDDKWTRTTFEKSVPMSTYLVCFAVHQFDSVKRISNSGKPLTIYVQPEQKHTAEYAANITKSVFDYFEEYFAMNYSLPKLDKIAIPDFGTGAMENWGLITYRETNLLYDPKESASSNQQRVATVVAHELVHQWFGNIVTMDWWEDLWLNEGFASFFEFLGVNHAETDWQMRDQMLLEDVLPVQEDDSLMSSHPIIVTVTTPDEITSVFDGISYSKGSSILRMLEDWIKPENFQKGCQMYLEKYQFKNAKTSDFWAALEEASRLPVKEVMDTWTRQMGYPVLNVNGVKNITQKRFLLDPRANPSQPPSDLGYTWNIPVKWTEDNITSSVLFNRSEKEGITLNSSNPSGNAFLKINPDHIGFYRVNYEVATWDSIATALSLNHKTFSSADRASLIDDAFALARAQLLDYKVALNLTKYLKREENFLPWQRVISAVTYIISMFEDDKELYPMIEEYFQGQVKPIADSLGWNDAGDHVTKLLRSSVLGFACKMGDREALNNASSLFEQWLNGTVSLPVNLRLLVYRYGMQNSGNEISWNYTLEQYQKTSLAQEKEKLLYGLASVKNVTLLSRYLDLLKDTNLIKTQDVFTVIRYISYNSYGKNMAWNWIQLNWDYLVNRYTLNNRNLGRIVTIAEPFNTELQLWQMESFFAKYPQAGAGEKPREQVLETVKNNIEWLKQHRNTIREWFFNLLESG
Chain of aminopeptidase B (Q9H4A4 whole entry, species assumed): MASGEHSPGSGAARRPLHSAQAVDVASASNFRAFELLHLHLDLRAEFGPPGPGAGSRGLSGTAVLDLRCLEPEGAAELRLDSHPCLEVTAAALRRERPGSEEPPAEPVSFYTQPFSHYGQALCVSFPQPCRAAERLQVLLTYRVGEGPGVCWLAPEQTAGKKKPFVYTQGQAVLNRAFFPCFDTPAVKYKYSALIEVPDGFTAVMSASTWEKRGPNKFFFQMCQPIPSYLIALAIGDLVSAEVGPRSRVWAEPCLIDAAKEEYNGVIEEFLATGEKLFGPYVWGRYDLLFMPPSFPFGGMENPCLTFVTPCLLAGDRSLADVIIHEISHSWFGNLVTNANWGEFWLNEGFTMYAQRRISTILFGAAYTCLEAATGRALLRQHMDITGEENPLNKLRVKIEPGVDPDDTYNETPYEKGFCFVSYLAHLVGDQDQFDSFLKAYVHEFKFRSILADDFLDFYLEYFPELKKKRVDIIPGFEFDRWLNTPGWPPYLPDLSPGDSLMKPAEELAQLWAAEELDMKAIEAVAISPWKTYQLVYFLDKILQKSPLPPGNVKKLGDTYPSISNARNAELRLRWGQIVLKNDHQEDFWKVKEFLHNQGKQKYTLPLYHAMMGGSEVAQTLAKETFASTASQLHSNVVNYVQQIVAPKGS
Chain of leucine aminopeptidase (P28838 whole entry): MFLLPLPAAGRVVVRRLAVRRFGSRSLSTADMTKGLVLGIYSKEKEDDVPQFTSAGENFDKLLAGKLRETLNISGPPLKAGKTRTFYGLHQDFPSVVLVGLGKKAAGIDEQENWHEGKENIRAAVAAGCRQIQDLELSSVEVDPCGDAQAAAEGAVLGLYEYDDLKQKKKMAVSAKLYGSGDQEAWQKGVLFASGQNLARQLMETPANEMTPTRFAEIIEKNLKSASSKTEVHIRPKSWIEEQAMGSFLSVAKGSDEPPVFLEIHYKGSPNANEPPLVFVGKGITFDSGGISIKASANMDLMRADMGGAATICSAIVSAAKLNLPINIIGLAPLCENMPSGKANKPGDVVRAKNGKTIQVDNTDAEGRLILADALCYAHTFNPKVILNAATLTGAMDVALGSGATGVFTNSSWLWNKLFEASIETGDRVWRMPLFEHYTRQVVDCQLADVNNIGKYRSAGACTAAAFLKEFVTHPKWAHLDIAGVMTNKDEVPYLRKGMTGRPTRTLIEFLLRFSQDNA

For `CC(C)C[C@H](NC(=O)[C@@H](O)[C@H](N)Cc1ccccc1)C(=O)O` [Bestatin, [(2S,3R)-3-amino-2-hydroxy-4-phenylbutanoyl]-L-leucine], the “inhibition of leucine aminopeptidase” value (leucine aminopeptidase) is listed as “inhibits”, the “inhibition of aminopeptidase A” value (aminopeptidase A) is listed as “does not have any inhibitory effect” and the “inhibition of aminopeptidase B” value (aminopeptidase B) is listed as “inhibits”.
For `CC(C)[C@H](NC(=O)[C@H](CCCNC(=N)N)NC(=O)N[C@@H](Cc1ccccc1)C(=O)O)C(=O)N[C@H](C=O)CCCNC(=N)N` [antipain] ({Phe-CO}-Arg-Val-Arg-aldehyde), the inhibition of papain (papain) is listed as “inhibit”.
For `CC(=O)N[C@@H](CC(C)C)C(=O)N[C@@H](CC(C)C)C(=O)N[C@H](C=O)CCCNC(=N)N` [leupeptin], the inhibition of trypsin (trypsin) is listed as “inhibit”.
In the case of `CC(C)CC(=O)N[C@H](C(=O)N[C@H](C(=O)N[C@@H](CC(C)C)[C@@H](O)CC(=O)N[C@@H](C)C(=O)N[C@@H](CC(C)C)[C@@H](O)CC(=O)O)C(C)C)C(C)C` [pepstatin] (Isovaleryl-VV[Sta]A[Sta]-OH), the inhibition of pepsin (pepsin) is given as “inhibit”.
